The values that follow come from patent US20150328193A1, “TREATMENT OF MTOR HYPERACTIVE RELATED DISEASES AND DISORDERS” (THE BRIGHAM AND WOMEN'S HOSPITAL, INC., priority 2012, published 2015).

Assay [1] relates to 621-101 cells (TSC2-null, derived from a LAM patient). Description: High-throughput screen of known bioactives in 621-101 cells, ATP levels ([…] GLO) as cell viability, with or without rapamycin pretreatment. It counts as cell-based, human. The settings on record: for Inducing cell death in TSC2-null LAM cells as single agent: used individually in the absence of rapamycin; for Synergize with rapamycin to cause cell death / decrease ATP levels (confirmed hits): Rapamycin 20 nM, screen compounds 20 uM; for Synergy with rapamycin to bring about apoptosis in TSC2-null LAM cells: combination with rapamycin; for Normalized ATP levels drug alone (A) / Normalized ATP levels rapa + drug (B): 621-101 cells, 48-72 h; for Normalized ATP levels drug alone (A): DMSO pretreatment; for Normalized ATP levels rapa + drug (B): rapamycin (20 nM) pretreatment two hours plus drug; for ATP Fold Change (B):(A): ratio of rapa + drug to drug alone. How it is done:
Rapamycin was used at 20 nM and the screen compounds at 20 uM.
Cells are then pretreated with either Rapamycin (20 nM) or DMSO control in duplicate for two hours. Compound libraries are then added at the ICCB and allowed to incubate for 48-72 h. […] Treatment with staurosporine (1-2 uM) represents a positive control for cell death.
The inventors screened the Known Bioactives Collection at the ICCB which consists of approximately 7,000 compounds.

For assay [2], the target named is JAK2 kinase (Homo sapiens, UniProt O60674). The settings on record: in vitro; cited from earlier work.
JAK2 kinase, sequence (O60674 whole entry): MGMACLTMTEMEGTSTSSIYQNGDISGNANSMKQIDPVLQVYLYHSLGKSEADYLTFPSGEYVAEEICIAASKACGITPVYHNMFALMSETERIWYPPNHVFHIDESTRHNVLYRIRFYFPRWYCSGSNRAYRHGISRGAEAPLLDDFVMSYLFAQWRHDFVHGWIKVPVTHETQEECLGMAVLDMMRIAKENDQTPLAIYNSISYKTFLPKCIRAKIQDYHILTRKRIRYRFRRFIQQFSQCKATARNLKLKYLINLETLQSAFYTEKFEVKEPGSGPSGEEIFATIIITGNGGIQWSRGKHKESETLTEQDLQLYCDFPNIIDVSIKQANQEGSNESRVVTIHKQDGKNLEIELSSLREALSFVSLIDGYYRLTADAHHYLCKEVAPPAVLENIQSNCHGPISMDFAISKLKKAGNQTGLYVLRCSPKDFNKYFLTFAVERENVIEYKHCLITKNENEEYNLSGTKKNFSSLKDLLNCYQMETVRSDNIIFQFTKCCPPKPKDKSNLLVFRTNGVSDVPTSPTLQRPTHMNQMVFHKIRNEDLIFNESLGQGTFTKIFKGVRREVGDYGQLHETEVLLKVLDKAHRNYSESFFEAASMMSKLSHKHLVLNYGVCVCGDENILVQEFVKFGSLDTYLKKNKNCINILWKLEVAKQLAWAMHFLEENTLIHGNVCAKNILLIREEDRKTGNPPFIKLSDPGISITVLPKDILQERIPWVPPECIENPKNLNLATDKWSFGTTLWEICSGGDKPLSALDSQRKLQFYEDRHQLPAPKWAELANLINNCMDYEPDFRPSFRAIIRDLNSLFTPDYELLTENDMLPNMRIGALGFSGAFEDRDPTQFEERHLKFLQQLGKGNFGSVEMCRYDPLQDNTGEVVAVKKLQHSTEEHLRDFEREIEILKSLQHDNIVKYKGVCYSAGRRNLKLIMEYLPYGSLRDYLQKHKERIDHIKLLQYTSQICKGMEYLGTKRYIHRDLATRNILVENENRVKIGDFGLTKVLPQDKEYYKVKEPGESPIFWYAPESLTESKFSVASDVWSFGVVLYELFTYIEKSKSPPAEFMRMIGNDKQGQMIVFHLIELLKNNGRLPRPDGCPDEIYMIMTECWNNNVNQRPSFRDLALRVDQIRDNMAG
Assay [3] addresses TrkA (Homo sapiens, UniProt P04629). As to conditions: cited from earlier work.
Assay [4] has as its target T1, Aurora-A (Homo sapiens, UniProt O14965).
T1 sequence (O14965 1-403): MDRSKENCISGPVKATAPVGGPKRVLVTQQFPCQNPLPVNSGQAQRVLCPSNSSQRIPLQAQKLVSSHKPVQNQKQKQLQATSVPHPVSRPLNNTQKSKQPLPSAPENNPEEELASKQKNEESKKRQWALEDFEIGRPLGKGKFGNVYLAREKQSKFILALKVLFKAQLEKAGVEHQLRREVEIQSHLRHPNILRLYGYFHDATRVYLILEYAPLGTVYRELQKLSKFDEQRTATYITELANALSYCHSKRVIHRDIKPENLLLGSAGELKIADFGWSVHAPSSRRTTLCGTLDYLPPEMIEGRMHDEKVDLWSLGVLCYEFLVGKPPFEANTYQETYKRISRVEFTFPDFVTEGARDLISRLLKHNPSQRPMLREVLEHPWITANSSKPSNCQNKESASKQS
As to conditions: cited from earlier work.

The target of assay [5] is FAK (Homo sapiens, UniProt Q05397). As to conditions: cited from earlier work.
FAK, sequence (Q05397 whole entry, species assumed): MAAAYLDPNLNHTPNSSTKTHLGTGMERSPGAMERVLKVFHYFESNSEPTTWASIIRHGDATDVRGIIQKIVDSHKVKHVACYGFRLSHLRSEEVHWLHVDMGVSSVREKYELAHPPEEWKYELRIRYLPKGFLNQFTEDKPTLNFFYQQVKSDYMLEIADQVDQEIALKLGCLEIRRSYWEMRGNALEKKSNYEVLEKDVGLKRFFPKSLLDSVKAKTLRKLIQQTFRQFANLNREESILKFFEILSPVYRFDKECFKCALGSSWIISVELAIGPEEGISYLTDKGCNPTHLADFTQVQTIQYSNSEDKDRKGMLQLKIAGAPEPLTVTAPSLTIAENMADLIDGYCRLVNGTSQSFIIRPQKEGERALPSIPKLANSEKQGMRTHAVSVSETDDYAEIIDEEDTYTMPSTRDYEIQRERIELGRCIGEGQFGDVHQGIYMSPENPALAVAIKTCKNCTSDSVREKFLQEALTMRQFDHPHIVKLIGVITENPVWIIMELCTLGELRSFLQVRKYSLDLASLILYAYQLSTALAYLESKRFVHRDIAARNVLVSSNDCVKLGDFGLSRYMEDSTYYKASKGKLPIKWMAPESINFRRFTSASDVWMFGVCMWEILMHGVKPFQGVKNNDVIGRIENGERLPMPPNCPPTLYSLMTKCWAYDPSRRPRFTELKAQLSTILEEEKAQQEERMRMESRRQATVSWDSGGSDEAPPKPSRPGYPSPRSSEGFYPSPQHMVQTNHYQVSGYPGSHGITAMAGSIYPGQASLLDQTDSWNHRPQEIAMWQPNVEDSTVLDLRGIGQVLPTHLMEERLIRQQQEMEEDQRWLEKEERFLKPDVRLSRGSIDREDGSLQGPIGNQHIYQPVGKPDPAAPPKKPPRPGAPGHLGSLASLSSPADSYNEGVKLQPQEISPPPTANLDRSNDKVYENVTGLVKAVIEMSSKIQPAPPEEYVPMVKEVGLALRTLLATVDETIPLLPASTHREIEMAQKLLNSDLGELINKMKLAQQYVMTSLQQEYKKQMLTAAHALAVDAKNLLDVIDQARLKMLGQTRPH
The test system of assay [6] is ELT3-V3 (TSC2-deficient) cells. Kind of assay: Paroxetine treatment of ELT3-V3 (TSC2-deficient) versus ELT3-T3 (re-expressing TSC2) cells. Further details: dose or concentration left out as unconfirmed. It counts as cell-based, Eker rat. As to conditions: 24 hrs. How it is done:
[…] TSC2-deficient uterine leiomyoma cells derived from the Eker rat model of TSC, ELT3-V3 (TSC2-deficient) and ELT3-T3 (re-expressing TSC2) were treated with […] of DMSO or Paxil for 24 hrs.

In assay [7] the test system is 621-101 cells. Kind of assay: Follow-up imaging of cell death/proliferation in 621-101 cells. It counts as cell-based, human. As to conditions: FIG. 1. The procedure: 621-101 cells were pretreated for two hours with either DMSO (top two panels) or rapamycin (20 nM) bottom two panels) followed by the addition of fresh DMSO (top left), fresh rapamycin (bottom left), chelerythrine chloride (1 uM, top right), or rapamycin and chelerythrine chloride (bottom right). […] 4× magnification.

Structures can show the parent of a compound that is named as a salt.

TrkA, sequence (P04629 33-796, species assumed): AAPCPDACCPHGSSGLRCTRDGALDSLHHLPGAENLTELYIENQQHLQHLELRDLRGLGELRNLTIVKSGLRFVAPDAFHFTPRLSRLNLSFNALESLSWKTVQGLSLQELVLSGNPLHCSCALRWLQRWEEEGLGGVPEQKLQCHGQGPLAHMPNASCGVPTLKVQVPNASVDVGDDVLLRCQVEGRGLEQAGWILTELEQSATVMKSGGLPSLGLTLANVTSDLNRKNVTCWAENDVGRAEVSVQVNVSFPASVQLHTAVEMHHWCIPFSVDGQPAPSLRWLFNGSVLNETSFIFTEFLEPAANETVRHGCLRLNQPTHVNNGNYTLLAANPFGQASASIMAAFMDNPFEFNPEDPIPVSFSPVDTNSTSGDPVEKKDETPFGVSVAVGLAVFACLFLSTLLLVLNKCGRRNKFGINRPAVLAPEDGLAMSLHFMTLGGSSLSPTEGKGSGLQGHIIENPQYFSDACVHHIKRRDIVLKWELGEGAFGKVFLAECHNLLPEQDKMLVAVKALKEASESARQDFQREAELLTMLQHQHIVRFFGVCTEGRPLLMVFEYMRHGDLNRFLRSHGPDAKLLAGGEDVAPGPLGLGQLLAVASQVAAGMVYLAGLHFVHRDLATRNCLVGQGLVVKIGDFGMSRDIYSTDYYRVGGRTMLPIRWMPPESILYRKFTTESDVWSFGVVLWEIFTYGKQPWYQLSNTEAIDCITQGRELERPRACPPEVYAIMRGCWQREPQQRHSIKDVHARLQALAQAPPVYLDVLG

Regarding `CNCCC(Oc1ccc(C(F)(F)F)cc1)c1ccccc1` (racemic) [fluoxetine, (RS)-N-methyl-3-phenyl-3-[4-(trifluoromethyl)phenoxy]propan-1-amine], the “Inducing cell death in TSC2-null LAM cells as single agent” value (“Inducing cell death” below) in assay [1] is on record as “surprisingly effective at inducing cell death”.

For the compound `NC[C@@H]1O[C@H](C23CC4CC(CC(C4)C2)C3)Cc2c1ccc(O)c2O` [A-77636], the “Inducing cell death” value in assay [1] was “surprisingly effective at inducing cell death”.

For `Cc1cc(Nc2nc(N[C@@H](C)c3ccc(F)cc3)c(C#N)cc2F)n[nH]1` [AZ-960], the “Synergize with rapamycin to cause cell death / decrease ATP levels (confirmed hits)” value in assay [1] is recorded as “confirmed as hits”. For the same compound, the “Synergy with rapamycin to bring about apoptosis in TSC2-null LAM cells” value (“Synergy with rapamycin” for short) in assay [1] is given as “worked synergistically with rapamycin”. Besides, the inhibitory constant (Ki) in assay [2] is 0.00045 µM. The IC50 in assay [3], in assay [4] and in assay [5] was approximately 0.1 µM in each case.

As for `CCC1(c2ccc(N)cc2)CCC(=O)NC1=O` (centres unmarked) [Aminoglutethimide], in assay [1], the “Normalized ATP levels drug alone (A)” value stood at 0.474, the “Normalized ATP levels rapa + drug (B)” value is listed as 1.264, the “ATP Fold Change (B):(A)” value was 2.7 (Anticonvulsant) and the “Inducing cell death” value is “surprisingly effective at inducing cell death”.

Turning to `O=C(Nc1cccc(Nc2ncc(Br)c(NCCc3cnc[nH]3)n2)c1)N1CCCC1` [BX912, N-(3-(4-(2-(1H-imidazol-5-yl)ethylamino)-5-bromopyrimidin-2-ylamino)phenyl)pyrrolidine-1-carboxamide], the “Synergy with rapamycin” value in assay [1] is “worked synergistically with rapamycin”.

With `CC(C)NCC(O)COc1ccc(CCOCC2CC2)cc1` (centres unmarked) [Betaxolol HCl], in assay [1], the “Normalized ATP levels drug alone (A)” value was found to be 0.487, the “Normalized ATP levels rapa + drug (B)” value was determined as 1.27, the “ATP Fold Change (B):(A)” value is listed as 2.6 (β blocker) and the “Inducing cell death” value was “surprisingly effective at inducing cell death”.

Consider `OCCN1CCN(CC/C=C2/c3ccccc3Sc3ccc(C(F)(F)F)cc32)CC1` [Flupenthixol 2HCl], for which, in assay [1], the “Normalized ATP levels drug alone (A)” value came to 0.273, the “Normalized ATP levels rapa + drug (B)” value was found to be 0.776, the “ATP Fold Change (B):(A)” value was 2.8 (Anti-psychotic) and the “Inducing cell death” value is reported as “surprisingly effective at inducing cell death”.

For the compound `OCCN1CCN(CCCN2c3ccccc3Sc3ccc(C(F)(F)F)cc32)CC1` [Fluphenazine 2HCl], in assay [1], the “Normalized ATP levels drug alone (A)” value was found to be 0.069, the “Normalized ATP levels rapa + drug (B)” value is given as 0.191, the “ATP Fold Change (B):(A)” value is on record as 2.8 (Anti-psychotic) and the “Inducing cell death” value is “surprisingly effective at inducing cell death”.

For `CCC1(c2ccccc2)NC(=O)N(C)C1=O` (centres unmarked) [Mephenytoin], in assay [1], the “Normalized ATP levels drug alone (A)” value amounted to 0.425, the “Normalized ATP levels rapa + drug (B)” value is on record as 1.17, the “ATP Fold Change (B):(A)” value is reported as 2.8 (Anticonvulsant) and the “Inducing cell death” value was “surprisingly effective at inducing cell death”.

For the compound `CN(C)CCOc1ccc(-c2nc(-c3ccncc3)c(-c3ccc4c(c3)CC/C4=N\O)[nH]2)cc1` [SB-590885], in assay [1], the “Synergize with rapamycin to cause cell death / decrease ATP levels (confirmed hits)” value was “confirmed as hits” and the “Synergy with rapamycin” value is on record as “worked synergistically with rapamycin”.

As for `C/N=c1\nc(-c2ccccc2)n(-c2ccccc2)s1` [SCH-202676 hydrobromide, (N-(2,3-diphenyl-1,2,4-thiadiazol-5-(2H)-ylidene)methanamine) hydrobromide], in assay [1], the “Synergize with rapamycin to cause cell death / decrease ATP levels (confirmed hits)” value was “confirmed as hits” and the “Synergy with rapamycin” value is on record as “worked synergistically with rapamycin”.

Consider `OCc1cc(C(O)CNCCCCCCOCCCCc2ccccc2)ccc1O` (centres unmarked) [Salmeterol], for which, in assay [1], the “Normalized ATP levels drug alone (A)” value turned out to be 0.184, the “Normalized ATP levels rapa + drug (B)” value was determined as 0.456, the “ATP Fold Change (B):(A)” value was 2.5 (β blocker) and the “Inducing cell death” value is “surprisingly effective at inducing cell death”.

In the case of `C[CH2][Hg][S]c1ccccc1C(=O)[O-].[Na+]` [Thimerosal, Ethyl(2-mercaptobenzoato-(2-)-O,S) mercurate(1-) sodium], the “Synergy with rapamycin” value in assay [1] is “worked synergistically with rapamycin”.

In the case of `COc1ccc2c(c1)CC[C@@H]1[C@@H]2CC[C@]2(C)[C@@H](NCCCCCCN3C(=O)CCC3=O)CC[C@@H]12` [U-73343, 1-[6-[((17β)-3-Methoxyestra-1,3,5[10]-trien-17-yl)amino]hexyl]-2,5-pyrrolidinedione], the “Synergy with rapamycin” value in assay [1] is “worked synergistically with rapamycin”.

For the compound `CO[C@@H](C(=O)N1Cc2[nH]nc(NC(=O)c3ccc(N4CCN(C)CC4)cc3)c2C1)c1ccccc1` [danusertib (PHA-739358)], in assay [1], the “Synergize with rapamycin to cause cell death / decrease ATP levels (confirmed hits)” value is on record as “confirmed as hits” and the “Synergy with rapamycin” value is reported as “worked synergistically with rapamycin”.

Take `C[C@H](CCC(=O)O)C[C@H](C)C[C@H](C)C(=O)/C=C(\O)[C@H](C)C[C@H](C)C/C=C/[C@@H](C)[C@@H](O)[C@@H](C)[C@@H](O)C[C@@H]1CC[C@@](C)([C@H]2CC[C@@](C)([C@@H](C)O)O2)O1` [ionomycin]: the “Synergy with rapamycin” value in assay [1] is “worked synergistically with rapamycin”.

On to `COC(=O)C1=C(C)NC(C)=C(C(=O)OCCN(C)Cc2ccccc2)C1c1cccc([N+](=O)[O-])c1` (centres unmarked) [nicardipine], for which the “Synergy with rapamycin” value in assay [1] is recorded as “worked synergistically with rapamycin”.

On to `CNCCC=C1c2ccccc2CCc2ccccc21` [nortriptyline, 3-(10,11-dihydro-5H-dibenzo[a,d]cyclohepten-5-ylidene)-N-methyl-1-propanamine], for which, in assay [1], the “Inducing cell death” value is given as “surprisingly effective at inducing cell death”.

In the case of `Fc1ccc([C@@H]2CCNC[C@H]2COc2ccc3c(c2)OCO3)cc1` [paroxetine, (3S,4R)-3-[(2H-1,3-benzodioxol-5-yloxy)methyl]-4-(4-fluorophenyl)piperidine], the “Inducing cell death” value in assay [1] was “surprisingly effective at inducing cell death”. Moreover, in assay [6], the “Apoptosis of ELT3-V3 (TSC2-deficient) cells” value is on record as “susceptible to Paxil induced apoptosis” and the “Selectivity for TSC2-deficient ELT3-V3 versus ELT3-T3 cells” value is listed as “selective to Tsc2-null cells”.

Turning to `CO[C@H]1C[C@@H]2CC[C@@H](C)[C@@](O)(O2)C(=O)C(=O)N2CCCC[C@H]2C(=O)O[C@H]([C@H](C)C[C@@H]2CC[C@@H](O)[C@H](OC)C2)CC(=O)[C@H](C)/C=C(\C)[C@@H](O)[C@@H](OC)C(=O)[C@H](C)C[C@H](C)/C=C/C=C/C=C/1C` [rapamycin], the “Cell death in 621-101 cells” value in assay [7] is listed as “does not induce cell death”.

For `CN1CCN(CCCN2c3ccccc3Sc3ccc(C(F)(F)F)cc32)CC1` [trifluoperazine, 10-[3-(4-methylpiperazin-l-yl)propyl]-2-(trifluoromethyl)-10H-phenothiazine], in assay [1], the “Inducing cell death” value is on record as “surprisingly effective at inducing cell death”.

Turning to “(7R)-7-(Acetyloxy)-4-hydroxy-N,N,N-trimethyl-3,5,9-trioxa-4-phosphapentacosan-1-aminium-4-oxide [PAF C16]”, the “Synergy with rapamycin” value in assay [1] is reported as “worked synergistically with rapamycin”.

In general, Ki refers to a dissociation constant, usually derived from enzyme kinetics or from competition with a known ligand. For orientation: IC50 means the point on the concentration scale where inhibition reaches its midpoint.
